The record followed here is ChEMBL document CHEMBL1201862, “PubChem BioAssay data set” (2004).

Activity calls are given as the source filed them.

One experiment deals with Vero. The experiment can be described thus: viability of Vero cells under compound – cytotoxicity control for flavivirus capping enzyme inhibitors (AID 588742). It counts as functional. The conditions noted are these: Chlorocebus sabaeus.
Experiment [1] addresses T1, Tyrosine-protein phosphatase non-receptor type 7 (Homo sapiens, UniProt P35236).
T1 sequence (P35236 whole entry): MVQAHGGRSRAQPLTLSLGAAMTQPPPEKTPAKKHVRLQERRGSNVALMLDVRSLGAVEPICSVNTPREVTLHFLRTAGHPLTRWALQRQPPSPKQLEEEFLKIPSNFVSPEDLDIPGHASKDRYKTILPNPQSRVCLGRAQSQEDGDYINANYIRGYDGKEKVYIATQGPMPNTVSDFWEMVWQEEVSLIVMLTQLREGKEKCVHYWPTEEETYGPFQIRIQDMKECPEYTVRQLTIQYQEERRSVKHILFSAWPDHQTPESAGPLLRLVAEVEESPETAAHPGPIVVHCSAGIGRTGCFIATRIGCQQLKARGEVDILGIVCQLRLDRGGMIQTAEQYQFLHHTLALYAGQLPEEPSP
The experiment can be described thus: HTS HePTP Fluorescent Assay using OMFP substrate for In Vitro dose response studies. [Related pubchem assays (depositor defined):AID1059, AID1077, AID1784, AID2068, AID2085, AID435032, AID521]. It counts as functional.

The target in experiment [2] is T2, Tyrosine-protein phosphatase non-receptor type 22 (Homo sapiens, UniProt Q9Y2R2).
T2 sequence (Q9Y2R2 whole entry): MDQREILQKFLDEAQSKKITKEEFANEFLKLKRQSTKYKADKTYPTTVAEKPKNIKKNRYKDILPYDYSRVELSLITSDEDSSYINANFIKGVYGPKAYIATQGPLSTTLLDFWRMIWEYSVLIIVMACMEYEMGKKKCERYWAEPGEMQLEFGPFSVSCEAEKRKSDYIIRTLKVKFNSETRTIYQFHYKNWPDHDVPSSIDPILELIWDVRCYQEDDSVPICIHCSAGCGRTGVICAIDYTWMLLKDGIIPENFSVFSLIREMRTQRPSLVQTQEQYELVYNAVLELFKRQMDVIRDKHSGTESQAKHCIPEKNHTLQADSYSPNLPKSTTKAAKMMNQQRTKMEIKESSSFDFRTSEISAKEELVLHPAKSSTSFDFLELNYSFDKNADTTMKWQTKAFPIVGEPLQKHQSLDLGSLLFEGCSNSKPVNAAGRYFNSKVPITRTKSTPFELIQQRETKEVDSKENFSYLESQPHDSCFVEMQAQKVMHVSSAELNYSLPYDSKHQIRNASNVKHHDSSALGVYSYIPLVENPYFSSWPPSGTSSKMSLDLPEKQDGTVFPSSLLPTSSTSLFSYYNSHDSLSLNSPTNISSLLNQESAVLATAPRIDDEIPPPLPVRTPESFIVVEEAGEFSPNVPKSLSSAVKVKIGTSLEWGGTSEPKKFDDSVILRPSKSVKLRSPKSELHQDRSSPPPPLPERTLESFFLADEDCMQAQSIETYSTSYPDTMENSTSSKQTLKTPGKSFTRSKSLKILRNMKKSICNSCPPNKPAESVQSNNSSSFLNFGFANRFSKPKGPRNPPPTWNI
Kind of experiment: PubChem AID 2140.

The target in the next experiment is Estrogen receptor beta (Homo sapiens, UniProt Q92731). Kind of experiment: blockers of SRC-3 recruitment to ERβ – biochemical, ELISA, streptavidin-HRP readout, orthogonal assay, confirmation (AID 1060).
Estrogen receptor beta, sequence (Q92731 whole entry): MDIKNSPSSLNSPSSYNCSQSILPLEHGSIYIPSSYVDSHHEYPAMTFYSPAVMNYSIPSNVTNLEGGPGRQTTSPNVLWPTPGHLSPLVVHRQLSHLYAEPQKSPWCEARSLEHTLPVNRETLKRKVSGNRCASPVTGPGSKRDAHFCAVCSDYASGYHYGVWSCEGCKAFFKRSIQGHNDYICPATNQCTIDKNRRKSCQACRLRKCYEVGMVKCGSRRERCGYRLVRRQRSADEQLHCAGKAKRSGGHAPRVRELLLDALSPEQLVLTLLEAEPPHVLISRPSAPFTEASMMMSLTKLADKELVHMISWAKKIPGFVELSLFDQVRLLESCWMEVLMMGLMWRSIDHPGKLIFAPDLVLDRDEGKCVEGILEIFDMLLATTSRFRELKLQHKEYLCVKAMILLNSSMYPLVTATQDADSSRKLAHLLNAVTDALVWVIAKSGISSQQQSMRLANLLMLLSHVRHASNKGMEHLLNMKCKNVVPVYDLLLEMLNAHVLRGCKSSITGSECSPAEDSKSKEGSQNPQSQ
Experiment [3] deals with T3, DNA repair and recombination protein RAD54-like (Homo sapiens, UniProt Q92698).
T3 sequence (Q92698 whole entry): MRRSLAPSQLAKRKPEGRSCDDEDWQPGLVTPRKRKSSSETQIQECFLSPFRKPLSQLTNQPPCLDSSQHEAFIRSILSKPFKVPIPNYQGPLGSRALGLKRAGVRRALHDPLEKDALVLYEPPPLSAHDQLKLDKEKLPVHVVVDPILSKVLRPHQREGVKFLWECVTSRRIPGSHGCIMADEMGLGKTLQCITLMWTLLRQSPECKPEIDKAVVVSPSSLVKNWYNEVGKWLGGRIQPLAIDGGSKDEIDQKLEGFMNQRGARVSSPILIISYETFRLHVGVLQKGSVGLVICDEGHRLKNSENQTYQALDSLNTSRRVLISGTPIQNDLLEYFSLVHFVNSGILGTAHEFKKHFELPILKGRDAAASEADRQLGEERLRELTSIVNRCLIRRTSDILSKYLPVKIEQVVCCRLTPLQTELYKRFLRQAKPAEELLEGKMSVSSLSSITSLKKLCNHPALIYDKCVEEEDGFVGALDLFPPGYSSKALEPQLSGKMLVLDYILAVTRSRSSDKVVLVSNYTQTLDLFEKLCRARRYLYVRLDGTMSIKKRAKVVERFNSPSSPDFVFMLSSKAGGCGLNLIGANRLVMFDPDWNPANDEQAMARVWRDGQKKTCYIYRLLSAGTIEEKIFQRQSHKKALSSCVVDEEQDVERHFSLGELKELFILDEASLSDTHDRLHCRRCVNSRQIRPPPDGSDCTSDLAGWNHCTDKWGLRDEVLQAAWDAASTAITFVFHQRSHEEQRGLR
Kind of experiment: RAD54 Holliday junction migration blockers – biochemical, fluorescence, cherry-picked samples, dose series, confirmation (AID 651657). Type of experiment: functional.

The target in experiment [4] is T2, Tyrosine-protein phosphatase non-receptor type 22. Kind of experiment: lymphoid phosphatase LYP inhibitors – biochemical, selectivity assay for STEP inhibitor project, dose response (AID 624241). Type of experiment: functional.
Another experiment deals with T4, Cysteine protease ATG4B (Homo sapiens, UniProt Q9Y4P1).
T4 sequence (Q9Y4P1 whole entry): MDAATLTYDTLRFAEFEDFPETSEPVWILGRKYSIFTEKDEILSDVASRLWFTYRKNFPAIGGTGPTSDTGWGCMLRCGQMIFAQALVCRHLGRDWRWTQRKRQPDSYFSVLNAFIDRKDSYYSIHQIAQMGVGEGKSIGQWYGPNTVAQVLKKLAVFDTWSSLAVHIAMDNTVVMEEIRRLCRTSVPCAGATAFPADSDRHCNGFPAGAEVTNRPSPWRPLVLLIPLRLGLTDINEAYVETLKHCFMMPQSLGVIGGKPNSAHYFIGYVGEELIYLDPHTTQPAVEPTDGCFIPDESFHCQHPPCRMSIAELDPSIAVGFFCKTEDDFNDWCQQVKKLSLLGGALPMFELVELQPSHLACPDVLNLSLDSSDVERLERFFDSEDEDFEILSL
Type of experiment: functional.

A further experiment deals with Phospholipase A2 (Homo sapiens, UniProt P04054). Type of experiment: functional.
Phospholipase A2, sequence (P04054 whole entry): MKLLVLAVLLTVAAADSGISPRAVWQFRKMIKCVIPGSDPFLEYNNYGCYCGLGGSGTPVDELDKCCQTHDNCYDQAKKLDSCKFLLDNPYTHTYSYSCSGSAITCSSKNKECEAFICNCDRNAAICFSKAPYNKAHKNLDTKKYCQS

As for `Cc1oc2c(c1C(=O)c1ccccc1)C(=O)C(=O)c1ccccc1-2`, the half-maximal cytotoxic concentration (CC50) in the experiment with Vero is 6.37 µM (active).
Regarding `O=C(O)COc1ccc(/C=N/NC(=O)c2ccc(-c3csc(Nc4ccc(Cl)cc4)n3)cc2)cc1`, the IC50 is > 99 µM (inactive) in experiment [1] and 6.07 µM (active) in experiment [2].
For `COc1ccc(C(=O)Nc2nc3c(s2)Cc2cc(OC)ccc2-3)cc1`, the IC50 on Estrogen receptor beta was < 0.023 µM (not active).
Take `COc1cc(NCCCNC(C)C)c2nccc(C)c2c1`: the AC50 in experiment [3] was 49.6 µM (active).
Consider `CSc1ccc(C=NNc2ccc(S(=O)(=O)Nc3ccccc3C(=O)O)cc2[N+](=O)[O-])cc1`, for which the IC50 in experiment [4] is 2.82 µM (active).
Take `CC(/C=C1\SC(=S)N(NS(=O)(=O)c2ccccc2)C1=O)=C\c1ccccc1`: the IC50 at Cysteine protease ATG4B was 12 µM (active); on Phospholipase A2, 8.23 µM (active).
